# Data reported in US20100330098A1, “METHODS TO REGULATE GLUCOSE METABOLISM” (priority 2009, published 2010).
# “Also recorded” adds a separate entry of the source.
# Legend:
# Assay type in all cases: in vivo, mouse
# db/db mice [1] = assay: Glucose tolerance test in db/db mice; settings: twice-weekly s.c. 25 mg/kg VEGF Trap vs hFc, 0.5 g/kg glucose i.p. (FIGS. 29-30)
# Experimental: FIG. 26 is a graph showing the results of glucose tolerance tests. 7 d after adenoviral infection, mice were given 0.5 g/kg glucose intraperitoneally and blood glucose levels were measured.
# FIG. 29 is a graph showing the results of a glucose tolerance test in db/db mice. Mice were given 0.5 g/kg glucose intraperitoneally and blood glucose levels were measured. * P<0.03 between treatment groups at the indicated time points. Values are mean±s.e.m.
# FIG. 30 is a graph showing the results of a glucose tolerance test in db/db mice. Mice were given 0.5 g/kg glucose intraperitoneally and blood glucose levels were measured. * P<0.03 between treatment groups at the indicated time points. Values are mean±s.e.m.
# FIG. 32 is a graph showing the results of a glucose tolerance test in db/db mice. Mice were given 0.5 g/kg glucose intraperitoneally and blood glucose levels were measured. * P<0.02 between treatment groups at the indicated time points. Values are mean±s.e.m.
# (§1) FIGS. 25-27 illustrate that VEGF inhibition and HIF-2α activation reverse the diabetic phenotype of db/db mice. The data of […] are from 10 week-old female db/db mice injected with 5×10^8 pfu of the indicated viruses.
# FIGS. 28-29 illustrate that the chronic administration of VEGF Trap protein improves hepatic glucose tolerance in db/db mice. […]
# G6PC and PEPCK = assay: Quantitative PCR of hepatic gluconeogenic gene expression; settings: SCID mice, six weeks twice-weekly s.c. 25 mg/kg VEGF Trap vs human Fc (FIG. 9)
# HIF-2α = assay: Immunoblots of hepatic HIF-2α; settings: C57Bl/6 mice, 14 days after single injection of 5×10^8 pfu Ad Flt1 vs Ad Fc (FIG. 11)
# db/db mice [2] = assay: Ad libidum (fed) and fasting blood glucose levels in db/db mice; settings: long-term twice-weekly s.c. 25 mg/kg VEGF Trap vs hFc (FIG. 28)
# From the text: FIG. 25 is a graph showing ad libidum and fasting blood glucose levels in mice. * P≦0.05 in the indicated treatment groups compared to control.
# FIG. 28 is a graph showing ad libidum blood glucose levels. * P<0.04 between VEGF Trap- and hFc-treated db/db mice at the indicated time points.
# FIG. 33 is a graph showing the fed and fasting blood glucose levels in db/db mice.
# Db/db model. Db/db or wild-type mice received single intravenous injection of adenoviruses encoding Ad Flt (soluble VEGF receptor), Ad Fc (control antibody Fc fragment), VEGF Trap or control human Fc fragment, with or without adenovirus encoding shRNA against HIF-2α, or scrambled control shRNA. Adenovirus gives preferential and quantitative hepatocyte infection, a robust maneuver for achieving hepatic gene knockdown (Canettieri et al., (2005) Cell Metab. 2: 331; Taniguchi et al., (2005) J. Clin. Invest. 115: 718).
# as §1
# FIGS. 28-29 illustrate that the chronic administration of VEGF Trap protein improves hepatic glucose tolerance in db/db mice. 10 week-old female db/db and db/+ mice (n=5) were treated with twice-weekly subcutaneous injections of 25 mg/kg VEGF Trap or control hFc. […]
# C57Bl/6 mice = assay: Euglycemic, hyperinsulinemic clamp analyses; settings: adult male C57Bl/6 mice
# From the text: Adult male C57Bl/6 mice (n=8 or 9) were used. * P=0.01 ** P=0.0001 for control vs. treatment.
# db/db mice [3] = assay: Plasma insulin levels by ELISA in db/db mice; settings: VEGF Trap vs hFc, ELISA (FIG. 31)
# Experimental: FIG. 31 is a graph showing plasma insulin levels as determined by ELISA. * P=0.003 between VEGF Trap- and hFc-treated db/db mice. The hyperinsulinemia of db/db mice is corrected by VEGF Trap treatment.
# FIGS. 28-29 illustrate that the chronic administration of VEGF Trap protein improves hepatic glucose tolerance in db/db mice. 10 week-old female db/db and db/+ mice (n=5) were treated with twice-weekly subcutaneous injections of 25 mg/kg VEGF Trap or control hFc.
# C57Bl/6 and SCID mice = assay: Ad libidum and fasting blood glucose levels in wild-type mice; settings: 6 weeks of twice-weekly s.c. VEGF Trap vs human Fc (FIG. 6)
# [4] = system: insulin receptor (IR) signaling intermediates Akt, GSK-3β, FOXO1; assay: Western blot of liver extracts: phosphorylation of insulin receptor signaling intermediates; settings: livers from VEGF Trap-treated mice (FIG. 8)
# From the text: (§2) FIG. 4 is a Western blot indicating increased hepatic insulin signaling following single intravenous injections of 5×10^8 pfu Ad Flt1 (VEGF inhibition) or Ad Fc (negative control) into adult C57Bl/6 mice. […] IR-β: b-subunit of the IR. * P≦0.05; n=5 animals each.
# (§3) FIG. 8 is a digital image of a Western blot analysis.
# IRS-2 = assay: Western blot of liver extracts: hepatic IRS-2 protein; settings: livers from VEGF Trap-treated mice (FIG. 8)
# From the text: as §2, §3
substance,measurement,setting,value
"VEGF Trap: Ig domain 2 from VEGFR1 fused to Ig domain 3 from VEGFR2, fused to the Fc domain of IgG1 (Regeneron)",glucose tolerance (GTT),db/db mice [1],improved glucose tolerance; also recorded: improves
same,hepatic expression of G6PC and PEPCK,G6PC and PEPCK,significantly reduced
same,hepatic HIF-2α stabilization,HIF-2α,increased stabilization
same,ad libidum blood glucose levels (hyperglycemia),db/db mice [2],sustained correction
same,glucose infusion rate to maintain euglycemia,C57Bl/6 mice; hyperinsulinemic euglycemic clamp (FIG. 7A),higher glucose infusion rate
same,insulin suppression of hepatic glucose production (insulin action in the liver),C57Bl/6 mice; hyperinsulinemic euglycemic clamp (FIG. 7B),increased insulin action in the liver
same,plasma insulin levels (hyperinsulinemia),db/db mice [3],sustained correction; also recorded: corrected
same,blood glucose levels,C57Bl/6 and SCID mice,lowered
same,liver phospho-AKT levels,[4],higher levels
same,liver IRS-2 levels,IRS-2,higher levels
